Consider five molecules from patent US7563774B2, “Combination of FBPase inhibitors and antidiabetic agents useful for the treatment of diabetes” (Metabasis Therapeutics, Inc., priority 2000, dated 2009).

Where two headings read alike, the source gives them in different places.

For series [1], the system named is C57BL/KsJ db/db mice. As to the kind of experiment: Acute combination treatment of a biguanide and an FBPase inhibitor in db/db mice (Example DD). The format is in vivo, mouse. On the procedure:
Male C57BL/KsJ db/db mice were purchased at 5 weeks of age from Clea Japan, Inc. (Tokyo, Japan). The mice were maintained under standard vivarium conditions (24-26° C., 12-hour light cycle, 12-hour dark cycle) and received standard chow and water ad libitum. […] The treatment groups were control, compound J , metformin, and the combination of compound J and metformin. […] Food was removed after treatment. Blood glucose levels in tail vein samples were measured by means of a Glucoloader-F, an automatic glucose analyzer, (A&T Co., Ltd., Tokyo, Japan).

In a further series the test system is Goto-Kakizaki rats. Briefly: Acute combination treatment of an alpha glucosidase inhibitor and an FBPase inhibitor in Goto-Kakizaki rats (Example EE). The series is classed as in vivo, rat. The protocol: Goto-Kakizaki rats, an animal model of lean NIDDM, were purchased at 5 weeks of age from Charles River Japan, Inc. (Tokyo, Japan). The rats were maintained under standard vivarium conditions (24-26° C., 12-hour light cycle, 12-hour dark cycle) and received standard chow and water ad libitum. At 18 weeks of age, animals were divided into 4 groups (n=5/group). The treatment groups were control, Compound J, acarbose (Bayer, Japan), and the combination of Compound J and acarbose. All animals were given 1 g/kg of corn starch by oral gavage. […] Acarbose was administered orally at a dose of 1 mg/kg simultaneously with starch. Blood glucose levels in tail vein samples were measured by means of a Glucoloader-F, an automatic glucose analyzer, (A&T Co., Ltd., Tokyo, Japan).

For series [2], the system named is Sprague-Dawley or Wistar rats. The following applies: fasted rat, cited from earlier work; for ED50: 2 h.
The test system of series [3] is C57BL/KsJ db/db mice. As to the kind of experiment: Chronic combination treatment of insulin and Compound J in db/db mice (Example BB). The series is classed as in vivo, mouse. On the procedure: Male C57BL/KsJ db/db mice were purchased at 5 weeks of age from Clea Japan, Inc. (Tokyo, Japan). […] At 19 weeks of age, animals were divided into 2 groups (n=6/group). […] Blood glucose levels in tail vein samples were measured by means of a Glucoloader-F, an automatic glucose analyzer, (A&T Co., Ltd., Tokyo, Japan).

For series [4], the system named is C57BL/KsJ db/db mice. As to the kind of experiment: Chronic combination treatment of insulin and Compound G in db/db mice (Example AA). The format is in vivo, mouse. The protocol:
Male C57BL/KsJ db/db mice were purchased at 5 weeks of age from Clea Japan, Inc. (Tokyo, Japan). The mice were maintained under standard vivarium conditions (24-26° C., 12-hour light cycle, 12-hour dark cycle) and received standard chow and water ad libitum. At 16 weeks of age, animals were divided into 2 groups (n=5 or 9-10/group). Both groups were subcutaneously injected with human recombinant insulin (Penfill N300, Novo Nordisk, Denmark) on a daily basis to adjust plasma glucose levels to the target range of 250 to 300 mg/dL.

A further series deals with Goto-Kakizaki (GK) rats. As to the kind of experiment: Acute combination treatment of insulin and an FBPase inhibitor in the Goto-Kakizaki rat (Example CC). The series is classed as in vivo. The protocol: Male Goto-Kakizaki (GK) rats were purchased at 9 weeks of age from Charles River Japan, Inc. (Tokyo, Japan). The rats were maintained under standard vivarium conditions (24-26° C., 12-hour light cycle, 12-hour dark cycle) and received standard chow and water ad libitum. At 48 weeks of age, animals were divided into 4 groups (n=6/group) after an overnight fast. The treatment groups were control, Compound J, insulin, and combination of Compound J and insulin. […] Insulin (human recombinant insulin, Penfill N300, Novo Nordisk, Denmark) was subcutaneously injected at the dose of 1.5 U/kg. Blood glucose levels in tail vein samples were measured by means of a Glucoloader-F, an automatic glucose analyzer, (A&T Co., Ltd., Tokyo, Japan).

Series [5] deals with C57BL/KsJ db/db mice. Briefly: Acute combination treatment of insulin and Compound G in db/db mice (Example Z). The format is in vivo, mouse. The protocol: Male C57BL/KsJ db/db mice were purchased at 5 weeks of age from Clea Japan, Inc. (Tokyo, Japan). The mice were maintained under standard vivarium conditions (24-26° C., 12-hour light cycle, 12-hour dark cycle) and received standard chow and water ad libitum. At 20 weeks of age, animals were divided into 4 groups (n=6/group). The treatment groups were control, compound G, insulin, and the combination of compound G and insulin. […] Insulin (human recombinant insulin, Penfill R300, Novo Nordisk, Denmark) was injected subcutaneously at a dose of 1.5 U/kg. Food was removed after treatment. Blood glucose levels in tail vein samples were measured by means of a Glucoloader-F, an automatic glucose analyzer, (A&T Co., Ltd., Tokyo, Japan).

Regarding `CN(C)C(=N)N=C(N)N` [Metformin, metformin, reference compound], the “Plasma Glucose, % of pretreatment value” is listed as “(67.7 +/− 1.9) %” in the series on C57BL/KsJ db/db mice [1] (after 2 hour); “(66.4 +/− 3.1) %” with C57BL/KsJ db/db mice [1] (after 4 hour); “(67.7 +/− 4.1) %” with C57BL/KsJ db/db mice [1] (after 6 hour); “(79.1 +/− 5.6) %” with C57BL/KsJ db/db mice [1] (after 8 hour); “(100.0 +/− 0.0) %” with C57BL/KsJ db/db mice [1] (before (0 hour)). The “Plasma Glucose” value with C57BL/KsJ db/db mice [1] (after 2 hour, Compound J and/or metformin 150 mg/kg p.o.) turned out to be 347.0 ± 21.2 mg/dL; in the series with C57BL/KsJ db/db mice [1] (after 4 hour), 346.5 ± 34.6 mg/dL; in the series on C57BL/KsJ db/db mice [1] (after 6 hour), 348.3 ± 30.7 mg/dL; in the series on C57BL/KsJ db/db mice [1] (after 8 hour), 407.8 ± 40.0 mg/dL; in the series with C57BL/KsJ db/db mice [1] (before (0 hour)), 515.7 ± 37.0 mg/dL. The blood glucose lowering result in the series with C57BL/KsJ db/db mice [1] (db/db mice, acute) was “lowered blood glucose significantly relative to controls”.

`C[C@H]1O[C@H](O[C@H]2[C@H](O)[C@@H](O)[C@@H](O[C@H]3[C@H](O)[C@@H](O)C(O)O[C@@H]3CO)O[C@@H]2CO)[C@H](O)[C@@H](O)[C@@H]1N[C@H]1C=C(CO)[C@@H](O)[C@H](O)[C@H]1O` (some centres unmarked) [Acarbose, acarbose, reference compound]: the “Plasma Glucose, relative value (% of pre-treatment value)” value with Goto-Kakizaki rats (0 min) was “(129.4 +/− 2.8) %”; in the series on Goto-Kakizaki rats (30 min after starch), “(139.5 +/− 6.0) %”; in the series with Goto-Kakizaki rats (60 min after starch) it was “(141.3 +/− 4.9) %”; in the series with Goto-Kakizaki rats (120 min after starch), “(119.9 +/− 4.9) %”; with Goto-Kakizaki rats (240 min after starch), “(93.5 +/− 4.7) %”; with Goto-Kakizaki rats (−60 min) it was “(100.0 +/− 0.0) %”. Besides, the “Plasma Glucose” value in the series on Goto-Kakizaki rats (0 min, Compound J 10 mg/kg p.o. at −60 min, acarbose 1 mg/kg p.o. with starch) was 226.4 ± 5.3 mg/dL; in the series on Goto-Kakizaki rats (30 min after starch) it was 243.8 ± 8.5 mg/dL; in the series with Goto-Kakizaki rats (60 min after starch) it was 247.2 ± 8.2 mg/dL; in the series on Goto-Kakizaki rats (120 min after starch) it was 209.4 ± 5.9 mg/dL; with Goto-Kakizaki rats (240 min after starch), 164.2 ± 10.7 mg/dL; in the series on Goto-Kakizaki rats (−60 min relative to starch 1 g/kg), 175.4 ± 5.9 mg/dL.

Take `CCC1=C(C)CN(C(=O)NCCc2ccc(S(=O)(=O)NC(=O)N[C@H]3CC[C@H](C)CC3)cc2)C1=O` [Glimepiride]: in series [2], the ED50 is reported as 0.182 (2 h) mg/kg. Moreover, in series [2] (Dose 0.1), the “Gluc low,%” value is given as −18%.

As to `CCOc1cc(CC(=O)N[C@@H](CC(C)C)c2ccccc2N2CCCCC2)ccc1C(=O)O` [Repaglinide], the ED50 in series [2] was 0.01 (2 h) mg/kg. In addition, in series [2] (Dose 0.01), the “Gluc low,%” value is −21%.

For the molecule “Insulin: human recombinant insulin, Penfill R300 (Example Z) or Penfill N300 (Examples AA, BB, CC), Novo Nordisk”, the “Body Weight” value with C57BL/KsJ db/db mice [3] (after 1 week) came to 57.9 ± 1.3 g; in the series with C57BL/KsJ db/db mice [3] (after 2 weeks), 59.7 ± 1.3 g; in the series with C57BL/KsJ db/db mice [3] (after 3 weeks) it was 61.4 ± 1.2 g; in the series with C57BL/KsJ db/db mice [3] (after 4 weeks) it was 64.2 ± 1.0 g; with C57BL/KsJ db/db mice [3] (before (0 week)) it was 54.9 ± 1.4 g; with C57BL/KsJ db/db mice [4] (after 1 week) it was 50.7 ± 1.5 g. Moreover, the “Body Weight” value came out at 54.3 ± 1.2 g with C57BL/KsJ db/db mice [4] (after 2 weeks), 57.4 ± 1.6 g in the series with C57BL/KsJ db/db mice [4] (after 3 weeks) and 43.4 ± 2.2 g in the series with C57BL/KsJ db/db mice [4] (before (0 week)). Besides, the “Insulin Dose required to achieve target blood glucose levels” value is given as 495 +/− 32 U/kg with C57BL/KsJ db/db mice [3] (after 1 week); 699 +/− 63 U/kg in the series on C57BL/KsJ db/db mice [3] (after 2 weeks); 760 +/− 95 U/kg with C57BL/KsJ db/db mice [3] (after 3 weeks); 802 +/− 129 U/kg in the series on C57BL/KsJ db/db mice [3] (after 4 weeks); 0 +/− 0 U/kg with C57BL/KsJ db/db mice [3] (before (0 week)). The “Plasma Glucose” value with C57BL/KsJ db/db mice [3] (after 1 week, insulin adjusted daily, Compound J 0.2% food admixture) was 408.8 ± 15.3 mg/dL; in the series with C57BL/KsJ db/db mice [3] (after 2 weeks), 447.7 ± 17.6 mg/dL; in the series on C57BL/KsJ db/db mice [3] (after 3 weeks), 396.3 ± 39.3 mg/dL; with C57BL/KsJ db/db mice [3] (after 4 weeks) it was 316.7 ± 17.2 mg/dL; with C57BL/KsJ db/db mice [3] (before (0 week)) it was 617.2 ± 28.1 mg/dL; in the series with C57BL/KsJ db/db mice [4] (after 1 week, insulin adjusted daily, Compound G 0.2% food admixture) it was 297.1 ± 46.0 mg/dL. The “Plasma Glucose” value in the series with C57BL/KsJ db/db mice [4] (after 2 weeks) was 375.6 ± 53.5 mg/dL; in the series on C57BL/KsJ db/db mice [4] (after 3 weeks) it was 282.4 ± 43.1 mg/dL; in the series on C57BL/KsJ db/db mice [4] (before (0 week)), 736.5 ± 17.0 mg/dL; in the series with Goto-Kakizaki (GK) rats (after 2 hour, Compound J 50 mg/kg p.o., insulin 1.5 U/kg s.c.), 88.8 ± 16.8 mg/dL; with Goto-Kakizaki (GK) rats (after 4 hours), 71.3 ± 20.9 mg/dL; in the series with Goto-Kakizaki (GK) rats (after 6 hours) it was 90.7 ± 19.7 mg/dL. Also, the “Plasma Glucose” value in the series on Goto-Kakizaki (GK) rats (before (0 hour)) was determined as 163.7 ± 5.8 mg/dL; with C57BL/KsJ db/db mice [5] (after 1 hour, Compound G 200 mg/kg p.o., insulin 1.5 U/kg s.c.), 410.8 ± 34.4 mg/dL; in the series with C57BL/KsJ db/db mice [5] (after 4 hours), 540.3 ± 35.9 mg/dL; with C57BL/KsJ db/db mice [5] (after […]), 463.2 ± 40.2 mg/dL; with C57BL/KsJ db/db mice [5] (before (0 hour)) it was 756.2 ± 15.2 mg/dL. For the same molecule, the body weight gain entry in the series with C57BL/KsJ db/db mice [3] (db/db mice, 4 weeks of treatment) is listed as “resulted in an increase in body weight”. The “Insulin Dose required to adjust plasma glucose to 250-300 mg/dL” value is on record as 753 +/− 72 U/kg in the series on C57BL/KsJ db/db mice [4] (after 1 week), 492 +/− 68 U/kg in the series with C57BL/KsJ db/db mice [4] (after 2 weeks), 306 +/− 67 U/kg with C57BL/KsJ db/db mice [4] (after 3 weeks) and 548 +/− 18 U/kg with C57BL/KsJ db/db mice [4] (before (0 week)). Moreover, the body weight increase result in the series with C57BL/KsJ db/db mice [4] (db/db mice, 3 weeks) is “increased body weight remarkably”. For the same molecule, the plasma glucose lowering result in the series on Goto-Kakizaki (GK) rats (GK rats, acute) is reported as “decreased plasma glucose within 2 hours”; in the series with C57BL/KsJ db/db mice [5] (db/db mice, acute) it was “improved hyperglycemia within 2.5 hours”. The “Plasma Glucose, % of before” value in the series with Goto-Kakizaki (GK) rats (after 2 hour) was “(55.0 +/− 11.0) %”; in the series on Goto-Kakizaki (GK) rats (after 4 hours) it was “(43.9 +/− 13.3) %”; with Goto-Kakizaki (GK) rats (after 6 hours), “(55.4 +/− 12.4) %”; in the series with Goto-Kakizaki (GK) rats (before (0 hour)) it was “(100.0 +/− 0.0) %”. Besides, the “Plasma Glucose, % of pretreatment values” in the series with C57BL/KsJ db/db mice [5] (after 1 hour) is listed as “(54.2 +/− 4.1) %”; with C57BL/KsJ db/db mice [5] (after 4 hours) it was “(71.4 +/− 4.1) %”; in the series on C57BL/KsJ db/db mice [5] (after […]), “(61.1 +/− 4.9) %”; with C57BL/KsJ db/db mice [5] (before (0 hour)) it was “(100.0 +/− 0.0) %”.
